Data set [1] relates to 3T3-L1 preadipocytes. Description: Preadipocyte cytotoxicity (cell counting kit-8). In kind it is cell-based. The note with it: treated 4 hours. (In general: Tetrazolium dyes change colour on reduction, which living cells bring about.)
Protocol: 3T3-L1 preadipocytes were inoculated into a 96 well plate at 5×10^3 per well, grown in medium (high glucose DMEM, 10% bovine calf serum, 1% penicillin/streptomycin) for 16 hours. The drug was prepared to contain 0.04% and 0.08%, respectively, and then treated for 4 hours. After adding 10 μl of Dojingo CK04-11 cell counting kit-8 to each well according to the manual, reacting for 2 hours, the absorbance at 450 nm was measured with a spectrophotometer to compare preadipocyte cytotoxicity.
Data set [2] is described as follows: SD rat skin penetration test: DCA distribution in subcutaneous tissue, skin and plasma. Also on record: species or system SD rats. The note with it: in vivo, sc. The text has this:
The interscapular region (back of the neck near the ear) of 10-week-old SD rats (280-350 g) with sufficient subcutaneous adipose tissue was shaved and anesthetized.

Data set [3] concerns dermis white adipose tissue. The experiment in a line: SD rat skin penetration test: histological analysis (H&E, Masson's trichome staining). In kind it is in vivo, SD rats. The note with it: 1%, 500 μL subcutaneous injection. The text has this:
The interscapular region (back of the neck near the ear) of 10-week-old SD rats (280-350 g) with sufficient subcutaneous adipose tissue was shaved and anesthetized. […].
Then, tissues (skin, subcutaneous tissue) of the interscapular region were collected, fixed, and subjected to H&E staining and Masson's trichome staining. Tissue changes were investigated through microscopic observation.

The conditions of data set [4]: cited from earlier work.

`C[C@H](CCC(=O)O)[C@H]1CC[C@H]2[C@@H]3CC[C@@H]4C[C@H](O)CC[C@]4(C)[C@H]3C[C@H](O)[C@]12C` [deoxycholic acid]: the “preadipocyte cytotoxicity (comparison between materials)” value in data set [1] (0.04%) was “the same”. Besides, the “survival rate of preadipocytes” value in data set [1] (0.08%, absorbance 450 nm) came to 24.6%. The “amount of DCA in subcutaneous tissue” value in data set [2] is recorded as “gradually decreased”. For the same molecule, in data set [3], the “H&E staining: tissue change” value is reported as “severe tissue damage was observed”; the “Masson's trichome staining: tissue change” value was “hematoma and edema occurred in the tissue”. Further, the solubility in water in data set [4] is recorded as 0.024%.

Source of the values: US20240325433A1, “MOLECULAR ASSOCIATION OF BILE ACID OR BILE SALT AND PHARMACEUTICAL COMPOSITION COMPRISING SAME FOR LOCALLY REDUCING FAT” (SCAI THERAPEUTICS CO., LTD., priority 2021, published 2024).
